Laboratory results reported in patent US9376436B2, “2-(pyridin-2yl)-1, 7-diaza-spiro [4.4] nonane-6-one compound as voltage-gated sodium channels modulators” (CONVERGENCE PHARMACEUTICALS LIMITED, priority 2011, dated 2016).
Structures can show the parent of a compound that is named as a salt. Where two headings read alike, the source gives them in different places.

Target: T1, hNaV1.7 (Homo sapiens, UniProt Q15858)
T1 construct: expressed in transfected cells; host or cells: HEK293
Experiment: QPatch NaV1.7 assay (whole-cell patch clamp, QPatch16x)
Format: cell-based
Settings: HEK293-hNaV1.7 cells
Method: The compounds of the invention were tested in a QPatch NaV1.7 assay.
HEK293-hNaV1.7 cells were grown in DMEM-F12+10% FBS culture media at 37° C. At a confluency of 50-70% cells were dissociated from culture flasks & triturated to ensure unicellular cell suspension; cell density was measured & adjusted to 2-3×10^6 cells/ml. Recordings were obtained using QPatch16x. The external solution was (in mM): NaCl, 128; KCl, 5; MgCl2, 2; CaCl2, 2; Glucose, 30; HEPES, 15; pH 7.3, 305-315 mOsm. Following seal formation and whole-cell access using internal solution (containing in mM: CsF, 135; EGTA/CsOH, 1/5; HEPES 10; NaCl, 10; pH 7.3, 310-320 mOsM), voltage pulse protocols were applied. Initially a steady state inactivation voltage protocol was used to determine the half-maximal voltage for steady state inactivation (V1/2 SSI). Two holding voltages were used to determine test drug inhibition: −90 mV, where most of the channels are in a closed state; and V1/2 SSI, where half of the channels are inactivated. Currents were elicited […] by stepping to a membrane potential of 0 mV for 20 ms. Four-point cumulative concentration responses were derived by determining the peak current amplitude at each concentration of test drug over 120 second application. Curves were fitted with the Hill equation yielding pIC50 values at −90 mV and V1/2 SSI holding potentials.

[1] = holding voltage V1/2 SSI (half of channels inactivated), read-out: QP Nav1.7 SSI vhalf pIC50 (converted)
[2] = holding voltage −90 mV (most channels closed), read-out: QP Nav1.7 −90 mV pIC50 (converted)

T1 sequence (Q15858 whole entry): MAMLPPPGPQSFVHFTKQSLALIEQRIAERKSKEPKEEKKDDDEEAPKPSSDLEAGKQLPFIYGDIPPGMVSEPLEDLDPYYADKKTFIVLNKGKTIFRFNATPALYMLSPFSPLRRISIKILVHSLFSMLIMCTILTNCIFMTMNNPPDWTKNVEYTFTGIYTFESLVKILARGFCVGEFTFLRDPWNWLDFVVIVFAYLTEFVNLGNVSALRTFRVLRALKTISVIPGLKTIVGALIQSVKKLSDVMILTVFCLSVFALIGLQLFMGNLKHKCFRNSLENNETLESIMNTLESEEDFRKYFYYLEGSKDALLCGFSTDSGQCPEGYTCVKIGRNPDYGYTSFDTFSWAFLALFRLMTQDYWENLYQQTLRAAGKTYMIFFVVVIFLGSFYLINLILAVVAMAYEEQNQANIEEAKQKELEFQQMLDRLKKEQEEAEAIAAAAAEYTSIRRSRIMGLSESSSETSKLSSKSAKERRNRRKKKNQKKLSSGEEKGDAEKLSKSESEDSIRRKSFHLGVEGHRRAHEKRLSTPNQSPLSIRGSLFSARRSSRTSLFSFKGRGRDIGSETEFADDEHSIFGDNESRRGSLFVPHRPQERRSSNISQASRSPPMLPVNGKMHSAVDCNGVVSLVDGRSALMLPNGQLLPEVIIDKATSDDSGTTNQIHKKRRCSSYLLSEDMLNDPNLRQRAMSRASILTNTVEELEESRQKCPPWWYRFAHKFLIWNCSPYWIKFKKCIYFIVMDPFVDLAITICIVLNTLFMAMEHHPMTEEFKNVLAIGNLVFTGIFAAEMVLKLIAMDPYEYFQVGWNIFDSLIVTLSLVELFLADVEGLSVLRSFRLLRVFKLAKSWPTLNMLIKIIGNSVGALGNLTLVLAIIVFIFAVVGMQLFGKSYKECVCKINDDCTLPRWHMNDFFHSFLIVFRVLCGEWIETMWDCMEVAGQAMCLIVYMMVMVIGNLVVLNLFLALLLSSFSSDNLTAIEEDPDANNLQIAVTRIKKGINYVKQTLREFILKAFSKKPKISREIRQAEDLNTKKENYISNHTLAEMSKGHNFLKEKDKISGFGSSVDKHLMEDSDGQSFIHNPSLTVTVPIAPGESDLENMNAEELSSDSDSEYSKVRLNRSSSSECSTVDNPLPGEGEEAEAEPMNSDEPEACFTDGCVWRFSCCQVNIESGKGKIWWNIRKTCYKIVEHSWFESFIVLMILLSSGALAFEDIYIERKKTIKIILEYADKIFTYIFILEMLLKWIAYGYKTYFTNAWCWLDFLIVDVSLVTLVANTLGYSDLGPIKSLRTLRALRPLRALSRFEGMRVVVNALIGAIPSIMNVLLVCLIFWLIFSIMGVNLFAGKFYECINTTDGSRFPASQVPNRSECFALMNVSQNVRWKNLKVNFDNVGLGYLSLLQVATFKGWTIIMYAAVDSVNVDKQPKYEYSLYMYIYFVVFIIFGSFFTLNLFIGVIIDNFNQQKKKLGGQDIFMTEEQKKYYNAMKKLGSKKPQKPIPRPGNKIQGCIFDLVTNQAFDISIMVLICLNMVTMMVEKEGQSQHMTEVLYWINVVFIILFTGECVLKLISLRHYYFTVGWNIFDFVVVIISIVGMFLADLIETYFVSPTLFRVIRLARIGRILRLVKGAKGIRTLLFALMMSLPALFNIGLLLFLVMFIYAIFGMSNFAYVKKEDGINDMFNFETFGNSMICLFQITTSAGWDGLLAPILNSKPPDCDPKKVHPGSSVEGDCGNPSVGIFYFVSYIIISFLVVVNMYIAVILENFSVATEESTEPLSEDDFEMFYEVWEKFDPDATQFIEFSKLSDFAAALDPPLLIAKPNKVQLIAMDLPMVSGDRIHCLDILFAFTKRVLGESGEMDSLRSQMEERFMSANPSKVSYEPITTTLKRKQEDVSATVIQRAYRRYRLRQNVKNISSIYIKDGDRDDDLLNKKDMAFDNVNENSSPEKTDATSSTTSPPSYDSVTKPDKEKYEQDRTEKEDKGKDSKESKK

Row | IC50 [1] | IC50 [2] | SMILES
1 | 6.31 µM | 50.1 µM | Cc1c(-c2ccc(F)cc2)ccnc1[C@H]1CC[C@@]2(CCN(C)C2=O)N1 [Example 19, (2R,5S)-2-[4-(4-Fluorophenyl)-3-methyl-2-pyridyl]-7-methyl-1,7-diazaspiro[4.4]nonan-6-one hydrochloride]
2 | 31.6 µM | 316 µM | Cc1c(-c2ccc(F)cc2)ccnc1[C@@H]1CC[C@@]2(CCN(C)C2=O)N1 [Example 20, (2S,5S)-2-[4-(4-Fluorophenyl)-3-methyl-2-pyridyl]-7-methyl-1,7-diazaspiro[4.4]nonan-6-one hydrochloride]
3 | 31.6 µM | 794 µM | Cc1cc(-c2cc(C(F)(F)F)ccc2C#N)cc([C@@H]2CC[C@]3(CCN(C)C3=O)N2)n1 [Example 21, 2-[2-Methyl-6-[(2S,5R)-7-methyl-6-oxo-1,7-diazaspiro[4.4]-nonan-2-yl]-4-pyridyl]-4-(trifluoromethyl)-benzonitrile hydrochloride]
4 | 158 µM | 1000 µM | Cc1cc(-c2cc(C(F)(F)F)ccc2C#N)cc([C@H]2CC[C@]3(CCN(C)C3=O)N2)n1 [Example 22, 2-[2-Methyl-6-[(2R,5R)-7-methyl-6-oxo-1,7-diazaspiro[4.4]-nonan-2-yl]-4-pyridyl]-4-(trifluoromethyl)-benzonitrile hydrochloride]
5 | 79.4 µM | 631 µM | Cc1cc(-c2cc(C(F)(F)F)ccc2C#N)cc([C@H]2CC[C@@]3(CCN(C)C3=O)N2)n1 [Example 23, 2-[2-Methyl-6-[(2R,5S)-7-methyl-6-oxo-1,7-diazaspiro[4.4]nonan-2-yl]-4-pyridyl]-4-(trifluoromethyl)benzonitrile hydrochloride]
6 | 398 µM | 1000 µM | Cc1cc(-c2cc(C(F)(F)F)ccc2C(N)=O)cc([C@H]2CC[C@@]3(CCN(C)C3=O)N2)n1 [Example 24, 2-[2-Methyl-6-[(2R,5S)-7-methyl-6-oxo-1,7-diazaspiro[4.4]nonan-2-yl]-4-pyridyl]-4-(trifluoromethyl)benzamide hydrochloride]
7 | 1580 µM | – | Cc1cc(-c2cc(C(F)(F)F)ccc2C(N)=O)cc([C@@H]2CC[C@@]3(CCN(C)C3=O)N2)n1 [Example 25, 2-[2-Methyl-6-[(2S,5S)-7-methyl-6-oxo-1,7-diazaspiro[4.4]nonan-2-yl]-4-pyridyl]-4-(trifluoromethyl)benzamide hydrochloride]
8 | 794 µM | – | Cc1cc(-c2cc(C(F)(F)F)ccc2C(N)=O)cc([C@H]2CC[C@]3(CCN(C)C3=O)N2)n1 [Example 26, 2-[2-Methyl-6-[(2R,5R)-7-methyl-6-oxo-1,7-diazaspiro[4.4]nonan-2-yl]-4-pyridyl]-4-(trifluoromethyl)benzamide hydrochloride]
9 | 39800 µM | – | Cc1cc(-c2cc(C(F)(F)F)ccc2C(N)=O)cc([C@@H]2CC[C@]3(CCN(C)C3=O)N2)n1 [Example 27, 2-[2-Methyl-6-[(2S,5R)-7-methyl-6-oxo-1,7-diazaspiro[4.4]nonan-2-yl]-4-pyridyl]-4-(trifluoromethyl)benzamide hydrochloride]
10 | 5.01 µM | 31.6 µM | Cc1cc(-c2ccc(C(F)(F)F)cc2)cc([C@H]2CC[C@@]3(CCN(C)C3=O)N2)n1 [Example 28, (2R,5S)-7-Methyl-2-[6-methyl-4-[4-(trifluoromethyl)phenyl]-2-pyridyl]-1,7-diazaspiro[4.4]nonan-6-one hydrochloride]
11 | 20 µM | 126 µM | Cc1cc(-c2ccc(C(F)(F)F)cc2)cc([C@@H]2CC[C@@]3(CCN(C)C3=O)N2)n1 [Example 29, (2S,5S)-7-Methyl-2-[6-methyl-4-[4-(trifluoromethyl)phenyl]-2-pyridyl]-1,7-diazaspiro[4.4]nonan-6-one hydrochloride]
12 | 5.01 µM | 39.8 µM | Cc1cc(-c2ccc(C(F)(F)F)cc2)cc([C@@H]2CC[C@]3(CCN(C)C3=O)N2)n1 [Example 30, (2S,5R)-7-Methyl-2-[6-methyl-4-[4-(trifluoromethyl)phenyl]-2-pyridyl]-1,7-diazaspiro[4.4]nonan-6-one hydrochloride]
13 | 20 µM | 79.4 µM | Cc1cc(-c2ccc(C(F)(F)F)cc2)cc([C@H]2CC[C@]3(CCN(C)C3=O)N2)n1 [Example 31, (2R,5R)-7-Methyl-2-[6-methyl-4-[4-(trifluoromethyl)phenyl]-2-pyridyl]-1,7-diazaspiro[4.4]nonan-6-one hydrochloride]
14 | 39.8 µM | 251 µM | CN1CC[C@@]2(CC[C@H](c3cc(-c4ccccc4F)ccn3)N2)C1=O [Example 32, (2R,5S)-2-[4-(2-Fluoro-phenyl)-pyridin-2-yl]-7-methyl-1,7-diaza-spiro[4.4]nonan-6-one hydrochloride]
15 | 39.8 µM | 126 µM | CN1CC[C@@]2(CC[C@@H](c3cc(-c4ccccc4F)ccn3)N2)C1=O [Example 33, (2S,5S)-2-[4-(2-Fluoro-phenyl)-pyridin-2-yl]-7-methyl-1,7-diaza-spiro[4.4]nonan-6-one hydrochloride]
16 | 158 µM | 251 µM | CN1CC[C@]2(CC[C@@H](c3cc(-c4ccccc4F)ccn3)N2)C1=O [Example 34, (2S,5R)-2-[4-(2-Fluoro-phenyl)-pyridin-2-yl]-7-methyl-1,7-diaza-spiro[4.4]nonan-6-one hydrochloride]
17 | 100 µM | 398 µM | CN1CC[C@]2(CC[C@H](c3cc(-c4ccccc4F)ccn3)N2)C1=O [Example 35, (2R,5R)-2-[4-(2-Fluoro-phenyl)-pyridin-2-yl]-7-methyl-1,7-diaza-spiro[4.4]nonan-6-one hydrochloride]
18 | 0.794 µM | 20 µM | O=C1NCC[C@@]12CC[C@@H](c1cc(-c3ccc(C(F)(F)F)cc3)ccn1)N2 [Example 36, (2S,5S)-2-[4-[4-(Trifluoromethyl)phenyl]-2-pyridyl]-1,7-diazaspiro[4.4]nonan-6-one hydrochloride]
19 | 0.794 µM | 25.1 µM | O=C1NCC[C@@]12CC[C@H](c1cc(-c3ccc(C(F)(F)F)cc3)ccn1)N2 [Example 37, (2R,5S)-2-[4-[4-(Trifluoromethyl)phenyl]-2-pyridyl]-1,7-diazaspiro[4.4]nonan-6-one hydrochloride]
20 | 7.94 µM | 63.1 µM | O=C1NCC[C@@]12CC[C@@H](c1cc(-c3ccc(C(F)(F)F)cc3F)ccn1)N2 [Example 38, (2S,5S)-2-[4-[2-Fluoro-4-(trifluoro-methyl)phenyl]-2-pyridyl]-1,7-diazaspiro[4.4]nonan-6-one hydrochloride]
21 | 20 µM | 79.4 µM | O=C1NCC[C@@]12CC[C@H](c1cc(-c3ccc(C(F)(F)F)cc3F)ccn1)N2 [Example 39, (2R,5S)-2-[4-[2-Fluoro-4-(trifluoro-methyl)phenyl]-2-pyridyl]-1,7-diazaspiro[4.4]nonan-6-one hydrochloride]
22 | 1.58 µM | 50.1 µM | Cc1cnc([C@@H]2CC[C@@]3(CCN(C)C3=O)N2)cc1-c1ccc(C(F)(F)F)cc1 [Example 40, (2S,5S)-7-Methyl-2-[5-methyl-4-[4-(trifluoromethyl)phenyl]-2-pyridyl]-1,7-diazaspiro[4.4]nonan-6-one hydrochloride]
23 | 2 µM | 25.1 µM | Cc1cnc([C@H]2CC[C@@]3(CCN(C)C3=O)N2)cc1-c1ccc(C(F)(F)F)cc1 [Example 41, (2R,5S)-7-Methyl-2-[5-methyl-4-[4-(trifluoromethyl)phenyl]-2-pyridyl]-1,7-diazaspiro[4.4]nonan-6-one hydrochloride]
24 | 2 µM | 25.1 µM | Cc1cnc([C@H]2CC[C@]3(CCN(C)C3=O)N2)cc1-c1ccc(C(F)(F)F)cc1 [Example 42, (2R,5R)-7-Methyl-2-[5-methyl-4-[4-(trifluoromethyl)phenyl]-2-pyridyl]-1,7-diazaspiro[4.4]nonan-6-one hydrochloride]
25 | 3.16 µM | 39.8 µM | Cc1cnc([C@@H]2CC[C@]3(CCN(C)C3=O)N2)cc1-c1ccc(C(F)(F)F)cc1 [Example 43, (2S,5R)-7-Methyl-2-[5-methyl-4-[4-(trifluoromethyl)phenyl]-2-pyridyl]-1,7-diazaspiro[4.4]nonan-6-one hydrochloride]
26 | 10 µM | 50.1 µM | CC1(C)C[C@@]2(CC[C@@H](c3cc(-c4ccc(C(F)(F)F)cc4)ccn3)N2)C(=O)N1 [Example 44, (2S,5S)-8,8-Dimethyl-2-[4-[4-(trifluoromethyl)phenyl]-2-pyridyl]-1,7-diazaspiro[4.4]nonan-6-one hydrochloride]
27 | 3.16 µM | 39.8 µM | CC1(C)C[C@@]2(CC[C@H](c3cc(-c4ccc(C(F)(F)F)cc4)ccn3)N2)C(=O)N1 [Example 45, (2R,5S)-8,8-Dimethyl-2-[4-[4-(trifluoromethyl)phenyl]-2-pyridyl]-1,7-diazaspiro[4.4]nonan-6-one hydrochloride]
28 | 0.794 µM | 10 µM | CC1(C)C[C@]2(CC[C@H](c3cc(-c4ccc(C(F)(F)F)cc4)ccn3)N2)C(=O)N1 [Example 46, (2R,5R)-8,8-Dimethyl-2-[4-[4-(trifluoromethyl)phenyl]-2-pyridyl]-1,7-diazaspiro[4.4]nonan-6-one hydrochloride]
